Consider two compounds from patent publication US20230365602A1, “COMPOUND FOR USE IN THE TREATMENT OF PROTOZOAL DISEASES AND PROCESS FOR PRODUCTION OF SAID COMPOUND” (QUADREL S.R.L., priority 2020, published 2023).

SMILES strings stand for the structures. Where two headings read alike, the source gives them in different places.

Data set [1] deals with T1, hERG channel (Homo sapiens, UniProt Q12809).
For data set [2] the following is noted: in humans; cited from earlier work.
The target of data set [3] is T1, hERG channel. The data set can be described thus: Early toxicity: hERG inhibition. (In general: Block of hERG is tested as a sign of cardiac risk.)
Data set [4] can be described thus: Biodistribution in tissues 72 h after oral gavage. It is filed as in vivo, mice. The conditions noted are these: for Kp at 72 h / concentration at 72 h: BALB/c (Compound 19), NMRI (miltefosine), mouse; for Kp at 72 h: 72 h after 20 mg/kg oral gavage. As for the experimental part: Blood samples were collected from the tail vein at 0, 0.5, 0.75, 1, 3, 24 and 72 hours into heparinized tubes. Moreover, biodistribution of the molecule, 72h after administration, was determined in several organs of the treated mice, namely brain, liver, spleen, kidney, heart and bone marrow. […] J Chromatogr B, 865: 55-62) by liquid chromatography mass spectrometry (LC-MS/MS).

Data set [5] concerns the target Aurora B kinase (Homo sapiens, UniProt Q96GD4). The data set can be described thus: Early toxicity: Aurora B kinase inhibition. In kind it is biochemical. As to conditions: Table 5.
A short description of data set [6]: Human microsomal stability. It is filed as in vitro ADME. On the procedure: (§1) Furthermore, compound 19 is stable in human hepatic microsomes (samples were taken at 0, 5, 15, 30, 45 minutes) (Table 8), while the human plasma stability is 99.7% (samples were taken at 0, 15, 30, 45, 60, 120 minutes).
A short description of data set [7]: Human plasma stability. As to conditions: samples at 0, 15, 30, 45, 60, 120 minutes. In kind it is in vitro ADME. On the procedure: as §1
Data set [8] has as its system L. infantum axenic amastigotes expressing luciferase. The data set can be described thus: In vivo model of infection with L. infantum axenic amastigotes expressing luciferase. The conditions noted are these: ten consecutive oral treatments with 10 mg/kg, 2 weeks after last treatment. On the procedure: FIG. 4 illustrates the in vivo activity of compounds 18 and 19 in a model of infection with L. infantum axenic amastigotes expressing luciferase (10 consecutive treatments with 10 mg/kg of each compound, evaluated by limiting dilution assay 2 weeks after the last treatment).
In vivo activity of compounds 18 and 19 (ten consecutive oral treatments with 10 mg/kg of each compound, followed by a break of 2 weeks after last treatment), was studied in a model of infection with axenic amastigotes expressing luciferase, essentially as described in (Mendes Costa D. et al, J. Sci Rep. 2019 Dec. 12; 9(1):18989; Tavares J. et al., Methods Mol Biol. 2019; 1971:289-301). (FIG. 4).

T1 sequence (Q12809 whole entry): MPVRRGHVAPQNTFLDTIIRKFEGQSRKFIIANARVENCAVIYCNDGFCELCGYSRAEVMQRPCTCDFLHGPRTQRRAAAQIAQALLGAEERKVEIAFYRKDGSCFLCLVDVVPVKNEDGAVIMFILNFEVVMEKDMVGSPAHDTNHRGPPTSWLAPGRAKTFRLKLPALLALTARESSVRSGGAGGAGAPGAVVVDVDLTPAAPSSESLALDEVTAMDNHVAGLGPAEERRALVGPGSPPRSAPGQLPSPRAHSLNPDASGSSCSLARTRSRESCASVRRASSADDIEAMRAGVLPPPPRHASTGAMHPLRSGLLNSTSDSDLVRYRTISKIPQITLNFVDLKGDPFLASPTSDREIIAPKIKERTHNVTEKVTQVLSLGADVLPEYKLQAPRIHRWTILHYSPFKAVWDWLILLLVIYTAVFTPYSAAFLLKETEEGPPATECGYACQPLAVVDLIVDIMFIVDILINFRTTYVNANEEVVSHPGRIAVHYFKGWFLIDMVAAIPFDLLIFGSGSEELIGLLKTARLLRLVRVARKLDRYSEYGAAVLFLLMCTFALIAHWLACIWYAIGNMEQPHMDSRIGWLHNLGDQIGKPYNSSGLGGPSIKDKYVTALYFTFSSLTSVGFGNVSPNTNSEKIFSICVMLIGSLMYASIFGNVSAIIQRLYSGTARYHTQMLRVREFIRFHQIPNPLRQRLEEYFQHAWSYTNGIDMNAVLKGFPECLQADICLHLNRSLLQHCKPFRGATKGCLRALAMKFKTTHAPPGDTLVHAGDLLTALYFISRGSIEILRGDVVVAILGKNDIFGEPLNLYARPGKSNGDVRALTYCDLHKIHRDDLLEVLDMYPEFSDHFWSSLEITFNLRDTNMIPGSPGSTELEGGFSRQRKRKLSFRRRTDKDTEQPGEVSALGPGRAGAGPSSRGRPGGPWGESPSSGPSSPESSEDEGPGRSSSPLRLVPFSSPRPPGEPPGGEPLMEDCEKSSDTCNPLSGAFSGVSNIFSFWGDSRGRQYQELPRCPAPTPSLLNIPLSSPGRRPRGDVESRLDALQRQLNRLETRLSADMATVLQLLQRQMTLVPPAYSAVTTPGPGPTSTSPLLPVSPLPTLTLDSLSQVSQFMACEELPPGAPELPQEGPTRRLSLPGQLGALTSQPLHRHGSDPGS
Chain of Aurora B kinase (Q96GD4 whole entry): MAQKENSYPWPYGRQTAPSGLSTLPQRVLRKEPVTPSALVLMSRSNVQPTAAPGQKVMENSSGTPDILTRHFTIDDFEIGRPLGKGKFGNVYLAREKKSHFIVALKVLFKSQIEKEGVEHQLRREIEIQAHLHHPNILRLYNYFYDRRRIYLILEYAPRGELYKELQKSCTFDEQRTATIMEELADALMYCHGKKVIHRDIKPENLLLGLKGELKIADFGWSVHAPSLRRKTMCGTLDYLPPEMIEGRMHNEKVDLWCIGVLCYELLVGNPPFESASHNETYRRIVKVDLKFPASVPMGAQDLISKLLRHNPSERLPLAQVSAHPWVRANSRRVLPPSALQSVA

As usually defined, the half-life is the time needed for the level to fall by half in the phase considered. With `CCCCCCCCCCCCCCCCOP(=O)([O-])OCC[N+](C)(C)C` [Miltefosine, hexadecylphosphocholine, reference compound], the “Flag for Interference, hERG” value in data set [1] is given as “(no)”. Moreover, the half-life in data set [2] is 100 to 200 h.

As a reminder, the inhibition is the drop in the measured response relative to a control, in per cent. In the case of `C[N+](C)(C)CCOP(=O)([O-])OCCCCCC1CCCCCCCCCCCCCC1` [Compound 19, 5-cyclopentadecylpentyl (2-(trimethylammonio)ethyl) phosphate], the “Flag for Interference, hERG” value in data set [3] (Table 4b) is recorded as “(no)”. Further, the results for the inhibition at 10 µM in data set [3] (human) and in data set [5] were 4.06 ± 2.07% and -9.92 ± 8.99%, respectively. In data set [4] (72 hours after 20 mg/kg oral gavage), the “times less concentration in plasma than miltefosine” value is reported as 6.5 times. Besides, the Kp at 72 h in data set [4] (bone marrow, read-out: Tissue/Plasma ratio Bone marrow) worked out at 0.09; in data set [4] (brain, read-out: Tissue/Plasma ratio Brain) it was 0.248; in data set [4] (heart, read-out: Tissue/Plasma ratio Heart), 0.55; in data set [4] (kidney, read-out: Tissue/Plasma ratio Kidney), 18.9; in data set [4] (liver, read-out: Tissue/Plasma ratio Liver), 5.36; in data set [4] (spleen, read-out: Tissue/Plasma ratio Spleen), 1.06. Moreover, the concentration at 72 h was 200 ng/g in data set [4] (bone marrow, 72 hours after 20 mg/kg oral gavage, read-out: Bone marrow); 540 ± 610 ng/g in data set [4] (brain, 72 hours after 20 mg/kg oral gavage, read-out: Brain); 1200 ± 900 ng/g in data set [4] (heart, 72 hours after 20 mg/kg oral gavage, read-out: Heart); 41100 ± 15800 ng/g in data set [4] (kidney, 72 hours after 20 mg/kg oral gavage, read-out: Kidney); 11600 ± 880 ng/g in data set [4] (liver, 72 hours after 20 mg/kg oral gavage, read-out: Liver); 2170 ± 550 ng/mL in data set [4] (plasma, 72 hours after 20 mg/kg oral gavage, read-out: Plasma). In data set [4] (spleen, 72 hours after 20 mg/kg oral gavage, read-out: Spleen), the concentration at 72 h was 2310 ± 710 ng/g. Also, the “Degradation non NADPH dependent (%)” value in data set [6] (human microsomes) was 0%. For the same compound, the “Human microsomal Metabolic stability (%)” value in data set [6] (samples at 0, 5, 15, 30, 45 minutes) is on record as 100%. Besides, the “Human plasma Metabolic stability (%)” value in data set [7] was found to be 99.7%. Besides, the “parasites in the bone marrow” value in data set [8] is recorded as “under the detection limit”.
